Results published in patent US7550624B2, “Pharmaceutically active salts and esters of 1-dimethylamino-3-(3-methoxyphenyl)-2-methylpentan-3-ol and 3- (3-dimethylamino-1-ethyl-1-hydroxy-2-methylpropyl)-phenol and methods of using same” (Gruenenthal GmbH, priority 2002, dated 2009).
Marks after values point to notes of the source that are not given here.

Test system: female Sprague-Dawley rats
Assay: Cystometry tests on conscious fresh rats
Format: in vivo, rat
Settings: for effect on the bladder regulation (in words): iv, cystometric parameters
Protocol: Cystometry investigations were carried out on fresh female Sprague-Dawley rats according to the method of Ishizuka et. al. ((1997), Naunyn-Schmiedeberg's Arch. Pharmacol. 355: 787-793). Three days after implantation of bladder and venous catheters the animals were investigated in the conscious state while freely moving. The bladder catheter was connected to a pressure gauge and an injection pump. The animals were placed in metabolic cages that enable the volume of urine to be measured. Physiological saline solution was infused (10 ml/hour) into the emptied bladder and the bladder pressure and volume of urine were continuously recorded. After a stabilisation phase a 20-minute phase was recorded that was characterised by normal, reproducible micturition cycles. The following parameters among others were measured: • threshold pressure TP, bladder pressure immediately before micturition, • bladder capacity BC, residual volume after prior micturition plus volume of infused solution during the filling phase, • intercontraction interval ICI, i.e. the time interval between consecutive micturition.
An increase in the threshold pressure (TP) indicates an important therapeutic effect in one of the medical conditions covered by the invention. Also, the intercontraction interval (ICI) is an important parameter for measuring the physiological effectiveness of a substance in the treatment of urinary incontinence, as is the bladder capacity (BC). In this connection, on account of the widely differing causes of the symptoms of these disease patterns it is not necessary to influence positively all three parameters in order for a medicament to be effective.
After recording three reproducible micturition cycles to provide a baseline value, the test substances 1 (1.0 mg/kg), 2 (0.1; 0.3 and 0.5 mg/kg), 21 (0.5 mg/kg) and 7 (0.3 mg/kg) in a vehicle comprising 0.9% NaCl were applied intravenously and the effect on the cystometric parameters was recorded at 90 to 120 minutes. In the effect maximum the mean value of 3 micturition cycles was determined and recorded as a percentage change compared to the baseline value (Table 1).

[1] = 0.5 mg/kg iv, effect maximum, mean of 3 micturition cycles
[2] = 0.3 mg/kg iv, effect maximum, mean of 3 micturition cycles

| Structure (SMILES) | BC Bladder Capacity (change compared to the baseline value) [1] | TP Threshold Pressure (change compared to the baseline value) [1] | effect on the bladder regulation (in words) | BC Bladder Capacity (change compared to the baseline value) (1.0 mg/kg iv, effect maximum, mean of 3 micturition cycles) | BC Bladder Capacity (change compared to the baseline value) (0.1 mg/kg iv, effect maximum, mean of 3 micturition cycles) | BC Bladder Capacity (change compared to the baseline value) [2] | ICI Inter-Contraction Interval (change compared to the baseline value) [2] |
| --- | --- | --- | --- | --- | --- | --- | --- |
| CC[C@@](O)(c1cccc(OC)c1)[C@@H](C)CN(C)C.Cl [Compound 21, (−)-(2S,3S)-1-dimethylamino-3-(3-methoxyphenyl)-2-methylpentan-3-ol, hydrochloride] | +3%** | −1.1%** | does not exhibit such a marked effect |  |  |  |  |
| CC[C@](O)(c1cccc(OC)c1)[C@H](C)CN(C)C.Cl (racemic) [Compound 1, (2RS,3RS)-1-dimethylamino-3-(3-methoxyphenyl)-2-methylpentan-3-ol, hydrochloride] |  |  |  | +31%** |  |  |  |
| CC[C@](O)(c1cccc(OC)c1)[C@H](C)CN(C)C.Cl [Compound 2, (+)-(2R,3R)-1-dimethylamino-3-(3-methoxyphenyl)-2-methylpentan-3-ol, hydrochloride] | +20.6%** |  | very effective |  | +7.8%** | +33%** |  |
| CCC(O)(c1cccc(O)c1)C(C)CN(C)C.Cl (racemic) [Compound 7, (2RS,3RS)-3-(3-dimethylamino-1-ethyl-1-hydroxy-2-methylpropyl)-phenol, hydrochloride] |  |  |  |  |  | +32%** | +2%* |
